These are literature values, as cited in patent publication US20090005431A1, “SUBSTITUTED PYRROLIDINES” (AUSPEX PHARMACEUTICALS, INC., priority 2007, published 2009).

Holding throughout (conditions): human recombinant muscarinic receptor subtypes; cited from earlier work
For series [1], the system named is M3 receptor compared to M1.
Series [2] has as its system M3 receptor compared to M4.
The subject of series [3] is M3 receptor compared to M5.
For series [4], the system named is M3 receptor compared to M2.

Consider `NC(=O)C(c1ccccc1)(c1ccccc1)[C@@H]1CCN(CCc2ccc3c(c2)CCO3)C1` (stereo in doubt) [darifenacin, 2-{1-[2-(2,3-dihydro-benzofuran-5-yl)-ethyl]-pyrrolidin-3-yl}-2,2-diphenyl-acetamide], for which the “greater affinity for M3 compared to M1” value in series [1] is 9 fold. Besides, the “greater affinity for M3 compared to M4” value in series [2] is listed as 59 fold. Besides, the “greater affinity for M3 compared to M5” value in series [3] is listed as 12 fold. Further, in series [4], the “greater affinity for M3 compared to M2” value is recorded as 59 fold.
